Measured values published in patent US8227510B2, “Combine use of pterostilbene and quercetin for the production of cancer treatment medicaments” (Universitat de Valencia, priority 2004, dated 2012).
Marks after values point to notes of the source that are not given here.

What was measured:
[1] = tested on: B16M-F10 cells / HSE; assay: Adhesion in vitro of B16M-F10 cells to hepatic sinusoidal endothelium; type: cell-based, mice; settings: for inhibition of adhesion of tumor cells to the endothelium: brief exposure (60 minutes), TNF and IFN present; for Tumor cells Adhesion (%): t-RESV 12 μM, t-PTER 40 μM, QUER 20 μM, 60 minutes exposure, cytokine-treated HSE, no polyphenol = 100%
Excerpt: C57BL/6J mice were used (male, 10 to 12 weeks old) from IFFA Credo (L'Arbreole, France). The hepatic sinusoidal endothelium (HSE) was separated and identified as described previously (20). The sinusoidal cells were separated in a gradient of 17.5% metrizamide (w/v). The HSE cultures were established and maintained in pyrogen-free DMEM supplemented as described previously for the B16M-F10 cells. Differential adhesion of the endothelial cells to the collagen matrix and washing permitted complete removal of other types of sinusoidal cells (Kupffer's cells, astrocytes, lymphocytes) from the culture flasks.
The B16M-F10 cells were labeled with 2′,7′-bis-(2-carboxyethyl)-5-(and -6)-carboxyfluorescein acetoxymethyl ester (BCECF-AM; Moleculer Probes, Eugene, Oreg., USA) (10^6 cells were incubated for 20 minutes at 37° C. in 1 ml of DMEM buffered with HEPES that contained 50 μg of BCECF-AM and 5 μl of DMSO). After washing, the cells that contained BCECF-AM were resuspended in DMEM buffered with HEPES without phenol red at a concentration of 2.5×10^6 cells/ml and were added (0.2 ml/well) to the endothelial cell culture (seeded 24 hours previously), as well as to wells of plastic and controls previously treated with collagen. The plates were then incubated at 37° C. and, 20 minutes later, the wells were washed three times with fresh medium, and then their fluorescence was read using a Fluoroskan Ascent FL (Labsystems, Manchester, UK). The number of adhering tumor cells was quantified with arbitrary fluorescence units based on the percentage relative to the initial number of B16M-F10 cells added to the HSE culture (20). The damage caused to the B16M-F10 cells during their adhesion in vitro to the HSE was evaluated as described previously (21) using tumor cells labeled with calcein-AM (Molecular Probes, Eugene, Oreg., USA). The integrity of the B16M-F10 cells cultivated on their own was evaluated by exclusion of trypan blue and measuring the lactate dehydrogenase released to the extracellular medium (22). The other reagents used in the tumoral cytotoxicity experiments were from Sigma.
Recombinant murine TNF- (2×10^7 U/mg of protein) and recombinant murine interferon-(IFN-; 10^5 U/mg of protein) were obtained from Sigma. The concentrated solutions (5×10^5 U TNF-/ml and 25×10^4 U IFN-/ml) were diluted in sterile saline (0.9% NaCl), adjusted to pH 7.0, and stored at 4° C.
In addition to the effect of PTER+QUER on tumor growth, we investigated the antimetastatic potential. The interaction of B16M-F10 and HSE cells was studied in vitro first. On the basis of the results obtained previously, we chose brief periods of exposure (60 minutes) of the metastatic cells to the polyphenols (at the concentrations measured in the plasma after their i.v. administration). Since the interaction of the metastatic cells with the endothelial cells and Kupffer's cells activates the local release of proinflammatory cytokines [promoters of adhesion of cancer cells to the endothelium and of invasion (14, 31)], we investigated the effect of the polyphenols on the adhesion of B16M-F10 cells to the HSE in the presence of TNF- and IFN-—this combination of cytokines induces maximum activation of the HSE (see ref. 20 and the references therein) (Table 3). […] A similar effect (˜60% inhibition of adhesion) was found in the presence of t-PTER (Table 3). […]

[2] = tested on: B16M-F10 cells / HSE; assay: In-vitro invasion of the monolayer of hepatic endothelial cells by B16M-F10 cells; type: cell-based, mice; settings: t-RESV 12 μM, t-PTER 40 μM, QUER 20 μM; 5 days culture; none 157 ± 17
Protocol: The test of invasion of the endothelial cell monolayer by B16M-F10 cells was carried out in accordance with the method of Ohigashi et al. (23) with some modifications. The HSE cells were seeded on culture plates with grids coated with gelatin (1%). When the cells attained confluence, the culture medium was replaced with freshly prepared medium. After 2 hours of incubation, the cultures were washed with DMEM and then the B16M-F10 cells were seeded on the HSE cells, maintaining the culture for 5 days. The invasion capacity of the B16M-F10 cells was measured by counting the number of colonies per 1 cm^2 formed under the HSE monolayer using a phase-contrast microscope.
HSE cells, previously cultured for 24 hours [±polyphenol(s), added 12 hours from seeding and removed by washing 60 minutes later], were cocultured with B16M-F10 cells previously cultured for 72 hours [±polyphenol(s), as in FIG. 2]. Cytokines [100 units of TNF-/ml and 50 units of IFN-/ml, see (20)] or the vehicle (physiological saline) were added to the culture media 12 hours before starting the cocultures. The proportion of adhesion of the tumor cells to the HSE was ˜1:1 in the cultures treated with cytokines in the absence of polyphenols (this value was assigned an adhesion level of 100%). In the experiments of adhesion between B16M-F10 cells and endothelial cells, 20 minutes after adding the B16M-F10 to the HSE, the plates were washed in the manner described in the methodology. In the tests of endothelium-induced cytotoxicity on the B16M-F10 cells, the tumor damage (expressed as the percentage of tumor cells that lost viability during the incubation period of 4-6 hours, see the methodology) was determined after 6 hours of incubation. During the 6-hour incubation period, the percentage viability of the HSE cells was 99-100% in all cases. All of the tests were carried out in the absence or in the presence of t-RESV (12 μM), t-PTER (40 μM), and/or QUER (20 μM). […]

SMILES	inhibition of adhesion of tumor cells to the endothelium [1]	Tumor cells Adhesion (%) [1] [%]	Number of colonies penetrated per cm^2 [2]
COc1cc(/C=C/c2ccc(O)cc2)cc(OC)c1 [PTER, pterostilbene]	~60%	40 ± 6	89 ± 9** per cm^2
O=c1c(O)c(-c2ccc(O)c(O)c2)oc2cc(O)cc(O)c12 [QUER, quercetin]	without affecting the level of adhesion	98 ± 11	106 ± 15** per cm^2
Oc1ccc(C=Cc2cc(O)cc(O)c2)cc1 [RESV, resveratrol, reference compound]		53 ± 7	104 ± 12** per cm^2
